PubChem BioAssay AID652047 (Broad Institute, 2013)
Where “and” joins values, the source holds several entries; their conditions need not be identical. Equal entries are not always repeated.

System: P. falciparum 3D7 in RBCs, SYBR Green DNA fluorescence
Test: antimalarial activity against intraerythrocytic 3D7 parasites – 3D7 strain, red blood cells, SYBR Green, cherry-picked, dose response (AID 652047)

| SMILES | AC35 |
| --- | --- |
| Cc1cc(/C=C2\SC(=S)N(C)C2=O)c(C)n1-c1ccc(O)cc1 | 10.8 µM |
| Cc1nc2ccc(C(C(F)(F)F)(C(F)(F)F)C(F)(F)F)cc2[nH]1 | 17.8 µM |
| O=c1c2ccccc2nc(-c2ccc(-c3ccccc3)cc2)n1-c1ccncc1 | 3.6 µM |
| Cc1ccc(NS(=O)(=O)c2ccc(N3CCN(c4ccc(O)cc4)CC3)c([N+](=O)[O-])c2)c(C)c1 | 17.2 µM |
| S=C(Nc1ccc(Oc2ccccc2)cc1)NC1CCCCCC1 | 12.7 µM |
| CC(=O)NC(c1cccc([N+](=O)[O-])c1)c1ccc2cccnc2c1O (stereo not drawn) | 2 µM |
| COC(=O)c1cccc2c1-c1ccccc1/C2=N/O | 34.7 µM |
| Oc1c(I)cc(Cl)c2cccnc12 | 2.33 µM |
| CN(C)c1ccc(C=c2c3ccccc3n3c2c2c([n+]3C)CCCC2)cc1 | 0.15 µM |
| O=C(COc1ccccc1F)Nc1nc(-c2ccccn2)cs1 | 10.5 µM |
| O=C(CC1CC2CCC1C2)Nc1nc(-c2ccccn2)cs1 (stereo not drawn) | 2.94 µM |
| COc1ccc(-c2oc3ccccc3c2C#Cc2cncn2C)cc1 | 0.603 µM |
| COc1cccc(/C=N/Nc2ncnc(Cl)c2N)c1O | 0.896 µM |
| CC[n+]1c(/C=C/C=C/c2ccc(N(C)C)cc2)sc2ccccc21 | 6.28 µM |
| C=C(C)COc1ccc(-c2[nH]ncc2-c2ccc(Br)cc2)c(O)c1 | 3.55 µM |
| CCCCC(=O)NC(=S)NNC(=O)CCc1ccccc1 | 20.8 µM |
| CCOC(=O)c1cnc(-n2nc(C)cc2C)nc1NC1CCCC1 | 2.6 µM |
| CN(C)c1ccc(C=c2c3cc(O)ccc3n3c2cc(-c2ccccc2)[n+]3C)cc1 | 0.127 µM |
| Cc1oc2c(c1C(=O)c1ccccc1)C(=O)C(=O)c1ccccc1-2 | 3.23 µM |
| C=CCN(CC=C)C(=S)NC(=O)c1ccc(C)c(Br)c1 | 6.98 µM |

| SMILES | AC35 |
| --- | --- |
| Clc1ccc(COC(Cn2ccnc2)c2ccc(Cl)cc2Cl)c(Cl)c1 (stereo not drawn) | 1.2 µM and 1.52 µM |
| CCOC(=O)c1ccc(NC(=S)N(Cc2cccnc2)Cc2ccco2)cc1 | 21.7 µM |
| COc1ccc2oc(=O)c(-c3csc(Nc4cccc(O)c4)n3)cc2c1 | 15.7 µM |
| Clc1nc(-c2ccccn2)nc2scc(-c3ccccc3)c12 | 2.34 µM |
| O=C(N/N=C/c1ccc[nH]1)c1sc2ccccc2c1Cl | 8.77 µM |
| COc1cc(/C=N/O)cc(Br)c1OCc1cccc(Cl)c1 | 29.6 µM |
| O=C(NCc1ccncc1)c1ccccc1Nc1ccc(SC(F)F)cc1 | 21.1 µM |
| c1ccc(C(=NNc2nc3ccccc3s2)c2ccccn2)cc1 | 1.5 µM |
| c1ccc(CSc2ccc(-c3ccccn3)nn2)nc1 | 19 µM |
| O=S(=O)(c1ccc(Cl)cc1)N1CCC2(CC1)OCCN2S(=O)(=O)c1cccs1 | 24.8 µM |
| COc1ccc2[nH]c(=O)c(CN(Cc3cccnc3)C(=O)Nc3ccccc3)cc2c1 | 17.5 µM |
| O=C(c1ccc(-c2ccccc2)cc1)C1CCCN(C(=O)c2cncs2)C1 (stereo not drawn) | 9.45 µM |
| Cc1cccc(NC(=S)NC(C)CCc2ccccc2)c1 (stereo not drawn) | 5.69 µM |
| O=C(CN1CC[n+]2c(-c3cccs3)csc21)c1ccc(-c2ccccc2)cc1 | 2.39 µM |
| CC1(C)C2CCC1(C)C(OC(=O)c1ccc(O)cc1)C2 (stereo not drawn) | 12.2 µM |
| COc1cc([N+](=O)[O-])cc(/C=N/NC(=O)c2cncc(Br)c2)c1O | 11.7 µM |
| Cc1ccsc1/C=C/c1ccc2cccc(O)c2n1 | 14.2 µM |
| CCCCNc1c(-c2cccc(Sc3ccc(OC)cc3)c2)nc2ccccn12 | 15.3 µM |
| COc1ccc(O)c(C(=O)CC(=O)c2ccccc2C)c1 | 8.89 µM |
| O=C(CSc1ccc(-c2ccccn2)nn1)NCc1ccc(F)cc1 | 28.7 µM |

| SMILES | AC35 |
| --- | --- |
| COC(=O)C1=C(C)NC(C)=C(C(=O)OCC(C)C)C1c1ccccc1[N+](=O)[O-] (stereo not drawn) | 4.78 µM |
| CN(c1ccccc1)c1nc(N2CCCC2)nc(-n2ccnc2)n1 | 9.8 µM |
| NC(=O)N=Nc1c2[nH]c3ccccc3nc-2c2ccccc12 | 10.7 µM |
| Nc1cc2c3ccccc3ccc2c2ccccc12 | 1.01 µM |
| CC(C)N1CCN(c2ccc(OC[C@H]3CO[C@](Cn4cncn4)(c4ccc(Cl)cc4Cl)O3)cc2)CC1 | 5.3 µM |
| Cc1ccc(C)c(/C=C/C(=O)c2ccccc(=O)c2O)c1 | 7.91 µM |
| CCC(=O)NC(c1ccco1)c1cc(Cl)c2cccnc2c1O (stereo not drawn) | 0.484 µM |
| CC(C)C(=O)NC(c1cccc([N+](=O)[O-])c1)c1ccc2cccnc2c1O (stereo not drawn) | 1.01 µM |
| O=C(NCCC1=CCCCC1)c1c(O)nc2sccn2c1=O | 17 µM |
| C[C@@]12CCC3[C@@](CCC4[C@@]3(C)CCC[C@@]4(C)C(=O)NCc3ccccc3)(CC1=O)C2 (stereo partly drawn) | 30.2 µM |
| CN1CCN(C(=O)c2cc(COc3ccc(F)cc3Cl)on2)CC1c1ccccc1 (stereo not drawn) | 38.8 µM |
| COc1ccccc1-c1sc2cc3c(cc2c1C#Cc1cncn1C)OCO3 | 2.48 µM |
| CC1=CC(C)(C)N(S(=O)(=O)c2ccc(C)cc2)c2ccc(C)cc21 | 22.3 µM |
| Cc1[nH]n(-c2ccccc2)c(=O)c1/C=N/Nc1nncc(-c2ccccc2)n1 | 1.2 µM |
| O=C(NOC(=O)c1ccccc1)c1ccccc1 | 20.9 µM |
| CCc1ccc(CN(C)C(=O)c2cc(COc3cccc(C(F)(F)F)c3)on2)nc1 | 24.6 µM |
| c1ccc(-c2ccc(SCc3cccnc3)nn2)nc1 | 33.1 µM |
| COc1ccc(C(=O)On2c(-c3ccc(Br)cc3)nc3ccccc3c2=O)cc1 | 5.71 µM |
